Experimental data as given in PubChem BioAssay AID1671332.

Target: Serine/threonine-protein kinase Nek7 (Homo sapiens) (UniProt Q8TDX7)
Assay: NEK7 kinase inhibitors, dose response, biochemical, Z'-LYTE FRET, direct format, recombinant human (AID 1671332)
Conditions: Z'-LYTE FRET kinase activity

Sequence of Serine/threonine-protein kinase Nek7 (Homo sapiens) (Q8TDX7 whole entry, looked up): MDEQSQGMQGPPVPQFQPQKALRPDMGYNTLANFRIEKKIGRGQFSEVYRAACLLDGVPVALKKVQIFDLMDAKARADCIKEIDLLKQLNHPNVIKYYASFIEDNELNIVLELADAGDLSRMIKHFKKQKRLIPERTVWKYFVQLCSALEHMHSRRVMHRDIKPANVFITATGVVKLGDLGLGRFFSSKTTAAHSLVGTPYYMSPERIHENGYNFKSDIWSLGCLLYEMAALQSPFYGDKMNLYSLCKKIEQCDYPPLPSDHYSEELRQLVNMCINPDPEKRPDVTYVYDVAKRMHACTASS

CN1C(=O)C2(Cc3cn(C45CC67SSC(CO)(C(=O)N6C4Nc4ccccc45)N(C)C7=O)c4ccccc34)SSC1(CO)C(=O)N2C (stereo unspecified)
IC50: 274 nM
